The record followed here is PubChem BioAssay (NCI).

Some test systems named below: M14 melanoma; HOP-62 NSCLC; HS 578T breast; NCI-H460 lung; MDA-N; SF-295 CNS; OVCAR-4 ovarian; MALME-3M melanoma; HOP-92 NSCLC; SR leukemia.
Common to all, as to assay: NCI-60 cell line screen, 48 h

Molecules are shown by their SMILES.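 Five compound concentrations were applied to cells in 96-well plates for 48 hours; endpoints were derived by simple linear interpolation of the resulting dose-response curve. Here, GI50 denotes the concentration required for 50% inhibition of growth. At the TGI there is no net growth.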

In the case of `CN(C)/N=N/c1nc2c(c(=O)n(C)c(=O)n2C)n1CC(O)CO` (configuration not stated), the TGI in the assay with M14 melanoma, with HOP-62 NSCLC, with HS 578T breast, in the assay on NCI-H460 lung, in the assay on MDA-N and in the assay with SF-295 CNS was > 100 µM in each case. Further, the TGI in the assay on OVCAR-4 ovarian and in the assay with MALME-3M melanoma was > 100 µM each time.

With `CN=C(/N=c1\ssc(=NC)n1C)N(C)C`, the TGI in the assay on M14 melanoma, in the assay with HOP-92 NSCLC, in the assay with NCI-H460 lung, with SF-295 CNS, with OVCAR-4 ovarian and in the assay with SR leukemia was > 100 µM throughout.

Take `CC(C)(C)CC(C)(C)c1cc(O)c(O)c(CN2CCCCC2)c1`: the TGI worked out at 29 µM in the assay with M14 melanoma; 30.1 µM in the assay with HOP-62 NSCLC; 35 µM in the assay on HOP-92 NSCLC; 41.3 µM in the assay with HS 578T breast; 24 µM in the assay on NCI-H460 lung; 28.3 µM in the assay on MDA-N. Also, the TGI was determined as 32.3 µM with SF-295 CNS, 42 µM with OVCAR-4 ovarian and 25.9 µM with MALME-3M melanoma.

As for `COc1cccc(N[C@@H]2c3cc4c(cc3C(c3cc(OC)c(O)c(OC)c3)[C@H]3C(=O)OCC32)OCO4)c1` (some centres not stated), the TGI in the assay on HOP-62 NSCLC was determined as 0.671 µM; with HOP-92 NSCLC, 9.33 µM; with NCI-H460 lung, 1.6 µM; in the assay on SF-295 CNS, 2.5 µM; in the assay with OVCAR-4 ovarian it was 87.9 µM; with MALME-3M melanoma, 20.7 µM.

On to `CCc1cc2c(c3c1CCCC3=O)CC1(Cc3ccc(C(=O)OC)cc3C1)C2` (configuration not stated), for which the TGI in the assay on M14 melanoma, in the assay with HOP-62 NSCLC, in the assay with HOP-92 NSCLC, with HS 578T breast, in the assay with NCI-H460 lung and with MDA-N was > 100 µM in each case. For the same molecule, the TGI in the assay on SF-295 CNS, with OVCAR-4 ovarian and in the assay with MALME-3M melanoma was > 100 µM in each case.

As for `CCN=C1C=CC(=C(c2ccc(N(CC)CC)cc2)c2ccc(N(CC)CC)cc2)c2ccccc21`, the GI50 is 0.184 µM with M14 melanoma, 0.159 µM with HOP-62 NSCLC, 0.0175 µM in the assay with HOP-92 NSCLC and 0.0408 µM with HS 578T breast. In addition, the TGI in the assay with M14 melanoma turned out to be 1.22 µM; in the assay with HOP-62 NSCLC, 0.846 µM; with HOP-92 NSCLC, 0.0922 µM; in the assay with HS 578T breast, 0.533 µM.

As to `Cc1ccc(S(=O)(=O)Nn2c(O)c(C#N)c(-c3ccc(Cl)cc3)c(C#N)c2=O)cc1`, the TGI with M14 melanoma, with HOP-62 NSCLC, with HOP-92 NSCLC, in the assay with HS 578T breast, in the assay on NCI-H460 lung and in the assay on MDA-N was > 100 µM in each case. The TGI in the assay on SF-295 CNS, in the assay with OVCAR-4 ovarian and in the assay with MALME-3M melanoma was > 100 µM throughout.

As to `c1ccc(CN2CCC(Nc3ccccc3)(c3nnnn3Cc3ccccc3)CC2)cc1`, the TGI in the assay on M14 melanoma was 38.5 µM; in the assay with HOP-62 NSCLC, > 100 µM; in the assay on HOP-92 NSCLC it was 34.5 µM; with HS 578T breast, > 100 µM; with NCI-H460 lung it was 53.9 µM; in the assay with SF-295 CNS, 44.8 µM. Besides, the TGI is > 100 µM with OVCAR-4 ovarian, 93.2 µM with SR leukemia and 34.9 µM in the assay with MALME-3M melanoma.

Take `CC(=O)Nc1ccc(OC/C(N)=N/NC(=O)c2ccncc2)cc1`: the TGI with M14 melanoma, with HOP-62 NSCLC, in the assay with HOP-92 NSCLC, in the assay with HS 578T breast, in the assay on NCI-H460 lung and in the assay with MDA-N was > 100 µM in each case. The TGI in the assay on SF-295 CNS and in the assay with OVCAR-4 ovarian was > 100 µM in each case.

For the molecule `Cc1nnc2n1N=C(c1ccc(Cl)cc1Cl)/C(=C/c1ccc(-c3ccc([N+](=O)[O-])cc3Cl)o1)S2`, the GI50 was > 100 µM in the assay with HOP-62 NSCLC; 21.5 µM in the assay on HOP-92 NSCLC; 20.2 µM in the assay with HS 578T breast; 26 µM in the assay on NCI-H460 lung; 43.5 µM with SF-295 CNS; 33.4 µM in the assay with OVCAR-4 ovarian. Moreover, the GI50 with MALME-3M melanoma was 21.2 µM. Also, the TGI in the assay with HOP-62 NSCLC is > 100 µM; in the assay with HOP-92 NSCLC it was 72.5 µM; in the assay with HS 578T breast, 50.7 µM; with NCI-H460 lung, > 100 µM; in the assay on SF-295 CNS, > 100 µM; with OVCAR-4 ovarian, > 100 µM. The same molecule returned a TGI in the assay on MALME-3M melanoma of 56.1 µM.

With `COc1ccc(C(SC2C(O)C(CO)OC2n2ccc(=O)[nH]c2=O)(c2ccccc2)c2ccc(OC)cc2)cc1` (configuration not stated), the TGI turned out to be 25.8 µM with M14 melanoma; 40.8 µM with HOP-62 NSCLC; 29.7 µM in the assay with HOP-92 NSCLC; 53.6 µM in the assay with HS 578T breast; 26 µM in the assay with NCI-H460 lung; 26.1 µM with MDA-N. Also, the figures for the TGI in the assay with SF-295 CNS, in the assay with OVCAR-4 ovarian and with MALME-3M melanoma were 43.3 µM, 64.9 µM and 36.7 µM, respectively.

Consider `O=C(O)c1ccccc1N=Cc1ccc(N(CCCl)CCCl)cc1`, for which the TGI in the assay with HOP-92 NSCLC, in the assay on NCI-H460 lung, in the assay with SF-295 CNS, in the assay with OVCAR-4 ovarian and with MALME-3M melanoma was > 100 µM in each case.

With `NCc1cccc(O)c1O`, the TGI in the assay with M14 melanoma, in the assay with HOP-62 NSCLC, in the assay on HOP-92 NSCLC, in the assay on NCI-H460 lung, with SF-295 CNS and in the assay on OVCAR-4 ovarian was > 100 µM in each case. Also, the TGI with SR leukemia and in the assay with MALME-3M melanoma was > 100 µM each time.

As to `O=C(CCN1CCN2c3ccccc3CCC2C1)c1ccc(F)cc1` (configuration not stated), the TGI in the assay with M14 melanoma was > 100 µM; in the assay on HOP-62 NSCLC it was 52.8 µM; with HOP-92 NSCLC, 82.1 µM; in the assay with HS 578T breast, > 100 µM; with NCI-H460 lung, > 100 µM; in the assay with SF-295 CNS, > 100 µM. Further, the TGI in the assay on OVCAR-4 ovarian is 37.8 µM; with SR leukemia it was > 100 µM; with MALME-3M melanoma it was 49.2 µM.

`COC(=O)C1C(=O)N(C)C(=O)N2CCCC12` (configuration not stated): the TGI with M14 melanoma, in the assay with HOP-62 NSCLC, in the assay with HOP-92 NSCLC, in the assay with HS 578T breast, with NCI-H460 lung and in the assay with MDA-N was > 100 µM each time. Also, the TGI in the assay with SF-295 CNS, in the assay with OVCAR-4 ovarian and in the assay with MALME-3M melanoma was > 100 µM throughout.

Consider `Cc1ccccc1-c1nc2c(C(=O)NCCN(C)C)cccc2[nH]1`, for which the TGI in the assay on HOP-62 NSCLC is > 87.3 µM; in the assay with HOP-92 NSCLC it was 85.1 µM; in the assay on NCI-H460 lung it was > 100 µM; with SF-295 CNS, > 100 µM; in the assay on OVCAR-4 ovarian it was > 100 µM; with MALME-3M melanoma, > 62.2 µM.
